# Results from US6794396B2, “Substituted pyridines useful for inhibiting cholesteryl ester transfer protein activity” (Pharmacia Corporation, priority 1998, dated 2004).
# Biological target: T1, CETP (Homo sapiens, UniProt P11597)
# T1 construct: made in house; host or cells: CHO cells (serum-free conditioned medium)
# T1 sequence (P11597 18-493): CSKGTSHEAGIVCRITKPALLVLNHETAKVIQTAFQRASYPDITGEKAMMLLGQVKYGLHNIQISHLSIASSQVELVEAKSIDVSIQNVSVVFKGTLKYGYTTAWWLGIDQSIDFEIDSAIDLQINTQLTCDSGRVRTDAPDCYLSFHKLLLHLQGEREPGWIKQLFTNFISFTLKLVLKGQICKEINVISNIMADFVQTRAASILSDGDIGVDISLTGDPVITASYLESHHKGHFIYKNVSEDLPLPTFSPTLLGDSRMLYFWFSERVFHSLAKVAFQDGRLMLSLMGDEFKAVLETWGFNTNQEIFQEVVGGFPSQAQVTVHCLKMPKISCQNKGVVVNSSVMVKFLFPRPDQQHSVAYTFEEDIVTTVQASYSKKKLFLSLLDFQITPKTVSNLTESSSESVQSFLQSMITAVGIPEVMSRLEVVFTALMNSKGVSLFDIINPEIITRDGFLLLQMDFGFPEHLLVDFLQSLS
# Test: CETP activity in vitro: transfer of [3H]CE from HDL donor to LDL acceptor particles
# Type: biochemical
# Details: IC50, Table 7, compounds of formula T-7
# How it was run: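 Transfer of radiolabelled cholesteryl ester from HDL to LDL was followed over 2 h at 37 °C in Tris buffer (pH 7.4, 150 mM NaCl, 2 mM EDTA, 1% BSA), using CETP secreted by transfected CHO cells. Radioactivity in dextran sulfate/Mg-precipitated LDL was measured by scintillation counting, giving IC50.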
row,SMILES,IC50 [µM]
1,COC(=O)c1c(C(F)F)nc(C(F)(F)F)c(SCc2cccc(Br)c2)c1CC(C)C [Compound 229],50
2,COC(=O)c1c(C(F)F)nc(C(F)(F)F)c(SCc2cccc(OC)c2)c1CC(C)C [Compound 231],50

# Same assay, conditions: Table 6, compounds of formula T-6; read-out: IC50
row,SMILES,IC50 [µM]
1,"COC(=O)c1c(C(F)F)nc(C(F)(F)F)c(CSc2ccc(Br)cc2OC(F)(F)F)c1CC(C)C [Compound 206, Methyl 5-[(4-Bromo-2-(trifluoromethoxy)phenyl)thiomethyl]-2-(difluoromethyl)-4-(2-methylpropyl)-6-(trifluoromethyl)-3-pyridinecarboxylate]",50
2,"COC(=O)c1c(C(F)F)nc(C(F)(F)F)c(CSc2ccccc2OC)c1CC(C)C [Compound 208, Methyl 5-[(2-Methoxyphenyl)thiomethyl]-2-(difluoromethyl)-4-(2-methylpropyl)-6-(trifluoromethyl)-3-pyridinecarboxylate]",60
3,"COC(=O)c1c(C(F)F)nc(C(F)(F)F)c(CSc2nc3ccc(C)cc3[nH]2)c1CC(C)C [Compound 209, Methyl 5-[(5-Methylbenzimidazol-2-yl)thiomethyl]-2-(difluoromethyl)-4-(2-methylpropyl)-6-(trifluoromethyl)-3-pyridinecarboxylate]",10
4,"COC(=O)c1c(C(F)F)nc(C(F)(F)F)c(CSc2nc3ccccc3[nH]2)c1CC(C)C [Compound 210, Methyl 5-[(Benzimidazol-2-yl)thiomethyl]-2-(difluoromethyl)-4-(2-methylpropyl)-6-(trifluoromethyl)-3-pyridinecarboxylate]",20
5,"COC(=O)c1c(C(F)F)nc(C(F)(F)F)c(CSc2cccc(OC)c2)c1CC(C)C [Compound 211, Methyl 5-[(3-Methoxyphenyl)thiomethyl]-2-(difluoromethyl)-4-(2-methylpropyl)-6-(trifluoromethyl)-3-pyridinecarboxylate]",45
6,"COC(=O)c1c(C(F)F)nc(C(F)(F)F)c(CSc2nc3ccccc3s2)c1CC(C)C [Compound 212, Methyl 5-[(Benzothiazol-2-yl)thiomethyl]-2-(difluoromethyl)-4-(2-methylpropyl)-6-(trifluoromethyl)-3-pyridinecarboxylate]",15
7,"COC(=O)c1c(C(F)F)nc(C(F)(F)F)c(CSc2cccc(Cl)c2)c1CC(C)C [Compound 213, Methyl 5-[(3-Chlorophenyl)thiomethyl]-2-(difluoromethyl)-4-(2-methylpropyl)-6-(trifluoromethyl)-3-pyridinecarboxylate]",15
8,"COC(=O)c1c(C(F)F)nc(C(F)(F)F)c(CSc2ccccn2)c1CC(C)C [Compound 216, Methyl 5-[(2-Pyridyl)thiomethyl]-2-(difluoromethyl)-4-(2-methylpropyl)-6-(trifluoromethyl)-3-pyridinecarboxylate]",40
9,"COC(=O)c1c(C(F)F)nc(C(F)(F)F)c(CSc2ccccc2Br)c1CC(C)C [Compound 217, Methyl 5-[(2-bromophenyl)thiomethyl]-2-(difluoromethyl)-4-(2-methylpropyl)-6-(trifluoromethyl)-3-pyridinecarboxylate]",50

# Same assay, conditions: Table 7, compounds of formula T-7; read-out: IC50
row,SMILES,IC50 [µM]
1,COC(=O)c1c(C(F)F)nc(C(F)(F)F)c(SCc2ccccc2)c1CC(C)C [Compound 219],25
2,COC(=O)c1c(C(F)F)nc(C(F)(F)F)c(SCc2ccc(Cl)cc2)c1CC(C)C [Compound 220],20
3,COC(=O)c1c(C(F)F)nc(C(F)(F)F)c(SCc2ccc(OC)cc2)c1CC(C)C [Compound 221],40
4,COC(=O)c1c(C(F)F)nc(C(F)(F)F)c(SCc2ccc(OCc3ccccc3)c(OCc3ccccc3)c2)c1CC(C)C [Compound 222],15
5,COC(=O)c1c(C(F)F)nc(C(F)(F)F)c(SCc2ccccc2[N+](=O)[O-])c1CC(C)C [Compound 223],50
6,COC(=O)c1c(C(F)F)nc(C(F)(F)F)c(SCc2ccc(OCc3ccccc3)cc2)c1CC(C)C [Compound 224],25
7,COC(=O)c1c(C(F)F)nc(C(F)(F)F)c(SCc2ccc(-c3ccccc3)cc2)c1CC(C)C [Compound 225],10
8,"COC(=O)c1c(C(F)F)nc(C(F)(F)F)c(SCc2ccc3c(c2Cl)OCO3)c1CC(C)C [Compound 226, Methyl 5-[(2-Chloro-3,4-methylenedioxyphenyl)methylthio]-2-(difluoromethyl)-4-(2-methylpropyl)-6-(trifluoromethyl)-3-pyridinecarboxylate]",60
9,COC(=O)c1c(C(F)F)nc(C(F)(F)F)c(SCc2c3ccccc3cc3ccccc23)c1CC(C)C [Compound 227],30
10,COC(=O)c1c(C(F)F)nc(C(F)(F)F)c(SCc2cccc([N+](=O)[O-])c2)c1CC(C)C [Compound 230],50
11,"COC(=O)c1c(C(F)F)nc(C(F)(F)F)c(SCc2ccccn2)c1CC(C)C [Compound 233, Methyl 5-[(2-pyridyl)methylthio]-2-(difluoromethyl)-4-(2-methylpropyl)-6-(trifluoromethyl)-3-pyridinecarboxylate]",60
12,COC(=O)c1c(C(F)F)nc(C(F)(F)F)c(SCc2ccc(C(F)(F)F)cc2C(F)(F)F)c1CC(C)C [Compound 234],20
13,COC(=O)c1c(C(F)F)nc(C(F)(F)F)c(SCc2ccc(OC(F)(F)F)cc2)c1CC(C)C [Compound 235],30
14,COC(=O)c1c(C(F)F)nc(C(F)(F)F)c(SCc2ccc(Cl)cc2Cl)c1CC(C)C [Compound 237],30
15,COC(=O)c1c(C(F)F)nc(C(F)(F)F)c(SCc2ccccc2Br)c1CC(C)C [Compound 239],45
16,"COC(=O)c1c(C(F)F)nc(C(F)(F)F)c(SCc2ccc3ccccc3n2)c1CC(C)C [Compound 241, Methyl 5-[(2-quinolinyl)methylthio]-2-(difluoromethyl)-4-(2-methylpropyl)-6-(trifluoromethyl)-3-pyridinecarboxylate]",50
17,COC(=O)c1c(C(F)F)nc(C(F)(F)F)c(SCc2cc(Cl)cc(Cl)c2)c1CC(C)C [Compound 243],50
18,COC(=O)c1c(C(F)F)nc(C(F)(F)F)c(SCc2c(F)c(F)c(F)c(F)c2F)c1CC(C)C [Compound 244],50
19,"COC(=O)c1c(C(F)F)nc(C(F)(F)F)c(SCc2ccc3c(c2)C(C)(C)CCC3(C)C)c1CC(C)C [Compound 245, Methyl 5-[(1,2,3,4-tetrahydro-1,1,4,4-tetramethyl-6-naphthyl)methylthio]-2-(difluoromethyl)-4-(2-methyl-propyl)-6-(trifluoromethyl)-3-pyridinecarboxylate]",30
20,"COC(=O)c1c(C(F)F)nc(C(F)(F)F)c(SCc2cc(Cl)cc3c2OCOC3)c1CC(C)C [Compound 246, Methyl 5[(6-chloro-1,3-benzodioxan-8-yl)methylthio]-2-(difluoromethyl)-4-(2-methylpropyl)-6-(trifluoromethyl)-3-pyridinecarboxylate]",30

# Same assay, conditions: Table 8; read-out: IC50
row,SMILES,IC50 [µM]
1,Fc1ccc(-c2c(COCc3ccccc3)c(C(F)(F)F)nc(C(F)F)c2C(F)c2ccc(C(F)(F)F)cc2)cc1 (stereo not drawn) [Compound 248],77
2,OCc1c(C(F)(F)F)nc(C(F)F)c(C(F)c2ccc(C(F)(F)F)cc2)c1-c1ccc(F)cc1 (stereo not drawn) [Compound 249],5
3,CCOC(=O)c1c(C(F)(F)F)nc(C(F)F)c(C(F)c2ccc(Cl)cc2)c1-c1ccc(F)cc1 (stereo not drawn) [Compound 250],40
4,O=Cc1c(C(F)F)nc(C(F)(F)F)c(C(F)c2ccc(C(F)(F)F)cc2)c1-c1ccc(F)cc1 (stereo not drawn) [Compound 251],7
5,O=Cc1c(C(F)F)nc(C(F)(F)F)c(COCc2ccccc2)c1-c1ccc(F)cc1 [Compound 252],4.5
6,OCc1c(C(F)(F)F)nc(C(F)F)c(C(F)c2ccc(C(F)(F)F)cc2)c1-c1ccc(F)cc1 (stereo not drawn) [Compound 253],19
7,CCOC(=O)c1c(C(F)(F)F)nc(C(F)F)c(C(F)c2ccc(Cl)cc2)c1-c1ccc(F)cc1 (stereo not drawn) [Compound 254],55
8,O=C(c1ccc(Cl)cc1)c1c(C(F)(F)F)nc(C(F)F)c(CO)c1-c1ccccc1 [Compound 258],15
9,O=C(c1ccc2ccccc2c1)c1c(C(F)(F)F)nc(C(F)F)c(CO)c1-c1ccccc1 [Compound 259],60
10,CC(C)c1ccc(C(=O)c2c(C(F)(F)F)nc(C(F)F)c(CO)c2-c2ccccc2)cc1 [Compound 263],40
11,O=C(c1ccc(Cl)cc1)c1c(C(F)(F)F)nc(C(F)F)c(CO)c1-c1ccccc1 [Compound 264],30
12,CC(C)c1ccc(C(F)c2c(C(F)(F)F)nc(C(F)F)c(CO)c2-c2ccccc2)cc1 (stereo not drawn) [Compound 265],60
13,CC(C)c1ccc(C(O)c2c(C(F)(F)F)nc(C(F)F)c(CO)c2-c2ccccc2)cc1 (stereo not drawn) [Compound 266],> 100
14,CCOC(=O)c1c(C(F)(F)F)nc(C(F)F)c(C(F)c2ccc(Cl)cc2)c1-c1ccccc1 (stereo not drawn) [Compound 267],70
15,CCOC(=O)c1c(C(F)(F)F)nc(C(F)F)c(C(F)c2ccc3ccccc3c2)c1-c1ccccc1 (stereo not drawn) [Compound 268],70
16,OCc1c(C(F)F)nc(C(F)(F)F)c(C(O)c2ccc(Cl)cc2)c1-c1ccccc1 (stereo not drawn) [Compound 269],> 100
17,OCc1c(C(F)F)nc(C(F)(F)F)c(C(O)c2ccc3ccccc3c2)c1-c1ccccc1 (stereo not drawn) [Compound 270],> 100
